Source: ChEMBL document CHEMBL4382193, “Discovery of Potent Irreversible Pan-Fibroblast Growth Factor Receptor (FGFR) Inhibitors” (J Med Chem, 2018)
Activity calls are given as the source filed them. The rule behind the calls is not given here.

Legend:
[1] = molecular target: Platelet-derived growth factor receptor beta (Homo sapiens, UniProt P09619); assay: Inhibition of recombinant PDGFRbeta (unknown origin) using poly (Glu,Tyr) 4:1 as substrate after 60 mins by ELISA
[2] = molecular target: Insulin-like growth factor 1 receptor (Homo sapiens, UniProt P08069); assay: Inhibition of recombinant IGF1R (unknown origin) using poly (Glu,Tyr) 4:1 as substrate after 60 mins by ELISA
RT-112 = assay: cells; conditions: Homo sapiens, RT-112, 72 h
Description: Antiproliferative activity against FGFR3 amplified human RT112 cells after 72 hrs by CCK8 or MTT assay

[3] = molecular target: Hepatocyte growth factor receptor (Homo sapiens, UniProt P08581); assay: Inhibition of recombinant c-MET (unknown origin) using poly (Glu,Tyr) 4:1 as substrate after 60 mins by ELISA
[4] = AUC in Sprague-Dawley rat at 10 mg/kg, po administered via gavage by HPLC-MS/MS analysis; assay type: ADME, organism-based; conditions: in vivo
[5] = molecular target: T1, Fibroblast growth factor receptor 1 (Homo sapiens, UniProt P11362); assay: Irreversible inhibition of FGFR1 (unknown origin) at 100 times IC50 concentration using 5-FAM-KKSRGDYMTMQIG-CONH2 peptide as substrate preincubated for 30 mins followed 100 fold dilution with substrate and ATP and measured for 1 hr
Target sequence in this assay (P11362 22-822 limits assumed): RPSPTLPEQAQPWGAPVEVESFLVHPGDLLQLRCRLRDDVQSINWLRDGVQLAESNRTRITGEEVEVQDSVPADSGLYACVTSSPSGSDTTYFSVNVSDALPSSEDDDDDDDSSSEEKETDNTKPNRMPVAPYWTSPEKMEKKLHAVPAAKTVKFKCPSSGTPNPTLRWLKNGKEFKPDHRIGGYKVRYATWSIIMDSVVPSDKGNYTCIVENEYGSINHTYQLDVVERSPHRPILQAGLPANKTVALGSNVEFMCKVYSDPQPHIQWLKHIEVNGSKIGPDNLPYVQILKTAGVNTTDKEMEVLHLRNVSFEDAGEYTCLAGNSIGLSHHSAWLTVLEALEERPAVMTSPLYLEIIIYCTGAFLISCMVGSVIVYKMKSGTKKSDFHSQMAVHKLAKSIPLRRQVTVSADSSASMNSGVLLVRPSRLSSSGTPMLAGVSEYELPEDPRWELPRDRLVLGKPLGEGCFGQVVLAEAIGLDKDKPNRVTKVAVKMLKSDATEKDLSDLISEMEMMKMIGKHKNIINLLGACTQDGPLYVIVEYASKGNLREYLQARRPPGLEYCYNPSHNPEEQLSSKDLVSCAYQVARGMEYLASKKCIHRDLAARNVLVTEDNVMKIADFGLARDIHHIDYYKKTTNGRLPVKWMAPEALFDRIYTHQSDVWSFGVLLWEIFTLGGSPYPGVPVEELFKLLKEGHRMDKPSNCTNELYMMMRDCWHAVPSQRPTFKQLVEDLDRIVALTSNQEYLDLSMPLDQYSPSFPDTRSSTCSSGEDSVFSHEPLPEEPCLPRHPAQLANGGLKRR

NCI-H1581 [6] = assay: cells; conditions: Homo sapiens, NCI-H1581, 72 h
Description: Antiproliferative activity against FGFR1 amplified human NCI-H1581 cells after 72 hrs by CCK8 or MTT assay

Ephrin type-A receptor 2 = Ephrin type-A receptor 2 (Homo sapiens, UniProt P29317); assay: Inhibition of recombinant EPHA2 (unknown origin) using poly (Glu,Tyr) 4:1 as substrate after 60 mins by ELISA
[7] = molecular target: T1, Fibroblast growth factor receptor 1
Description: Inhibition of recombinant FGFR1 (unknown origin) using poly (Glu,Tyr) 4:1 as substrate after 60 mins by ELISA

[8] = molecular target: T1, Fibroblast growth factor receptor 1; assay: Inhibition of FGFR1 phosphorylation in human KG1 cells at 5 to 20 nM after 2 hrs by Western blot analysis; assay type: cell-based
Target sequence in this assay (P11362 22-822 limits assumed): as above

[9] = molecular target: Vascular endothelial growth factor receptor 1 (Homo sapiens, UniProt P17948); assay: Inhibition of recombinant FLT1 (unknown origin) using poly (Glu,Tyr) 4:1 as substrate after 60 mins by ELISA
[10] = molecular target: T1, Fibroblast growth factor receptor 1; assay: Inhibition of FGFR1 in human KG1 cells assessed as reduction in ERK phosphorylation at 5 to 20 nM after 2 hrs by Western blot analysis; assay type: cell-based
Target sequence in this assay (P11362 22-822 limits assumed): as above

Homo sapiens = species: Homo sapiens; assay: Selectivity ratio of IC50 for recombinant VEGFR2 (unknown origin) to IC50 for recombinant FGFR1 (unknown origin)
[11] = molecular target: Epidermal growth factor receptor (Homo sapiens, UniProt P00533); assay: Inhibition of recombinant EGFR (unknown origin) using poly (Glu,Tyr) 4:1 as substrate after 60 mins by ELISA
[12] = Tmax in Sprague-Dawley rat at 10 mg/kg, po administered via gavage by HPLC-MS/MS analysis; assay type: ADME, organism-based; conditions: in vivo
[13] = molecular target: T2, Fibroblast growth factor receptor 2 (Homo sapiens, UniProt P21802); assay: Inhibition of FGFR2 phosphorylation in human SNU16 cells at 0.1 to 10 nM after 2 hrs by Western blot analysis; assay type: cell-based
Target sequence in this assay (P21802 22-821 limits assumed): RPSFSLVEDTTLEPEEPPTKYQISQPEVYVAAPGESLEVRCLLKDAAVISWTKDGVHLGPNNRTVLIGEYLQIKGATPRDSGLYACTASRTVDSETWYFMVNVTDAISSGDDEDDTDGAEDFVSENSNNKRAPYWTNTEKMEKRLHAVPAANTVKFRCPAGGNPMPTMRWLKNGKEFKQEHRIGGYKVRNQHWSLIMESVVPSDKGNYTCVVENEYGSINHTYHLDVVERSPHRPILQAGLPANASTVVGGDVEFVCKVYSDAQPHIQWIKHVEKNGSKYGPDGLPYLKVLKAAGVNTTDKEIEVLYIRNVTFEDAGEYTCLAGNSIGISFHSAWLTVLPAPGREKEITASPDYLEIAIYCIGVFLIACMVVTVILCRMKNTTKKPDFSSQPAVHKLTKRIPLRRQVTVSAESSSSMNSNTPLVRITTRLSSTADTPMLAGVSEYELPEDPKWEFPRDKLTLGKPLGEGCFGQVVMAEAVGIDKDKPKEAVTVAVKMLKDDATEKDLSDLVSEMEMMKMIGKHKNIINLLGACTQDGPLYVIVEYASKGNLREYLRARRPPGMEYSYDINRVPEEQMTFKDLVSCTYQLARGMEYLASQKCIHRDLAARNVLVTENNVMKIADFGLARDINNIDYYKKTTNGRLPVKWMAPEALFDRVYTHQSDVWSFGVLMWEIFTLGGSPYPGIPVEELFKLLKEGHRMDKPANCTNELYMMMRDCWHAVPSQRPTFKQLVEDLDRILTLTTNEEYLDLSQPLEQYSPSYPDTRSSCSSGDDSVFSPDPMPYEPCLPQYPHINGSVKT

[14] = molecular target: Vascular endothelial growth factor receptor 2 (Homo sapiens, UniProt P35968); assay: Inhibition of recombinant VEGFR2 (unknown origin) using poly (Glu,Tyr) 4:1 as substrate after 60 mins by ELISA
[15] = molecular target: Tyrosine-protein kinase ABL1 (Homo sapiens, UniProt P00519); assay: Inhibition of recombinant ABL (unknown origin) using poly (Glu,Tyr) 4:1 as substrate after 60 mins by ELISA
SNU-16 [16] = assay: Antitumor activity against FGFR2 amplified human SNU16 cells xenografted in nude mouse assessed as tumor growth inhibition at 50 mg/kg, po administered once daily for 21 days relative to control; assay type: functional; conditions: SNU-16, po, 504 h, read-out: TGI
[17] = molecular target: Fibroblast growth factor receptor 4 (Homo sapiens, UniProt P22455); assay: Inhibition of recombinant FGFR4 (unknown origin) using poly (Glu,Tyr) 4:1 as substrate after 60 mins by ELISA
[18] = molecular target: Tyrosine-protein kinase BTK (Homo sapiens, UniProt Q06187); assay: Inhibition of recombinant BTK (unknown origin) using poly (Glu,Tyr) 4:1 as substrate after 60 mins by ELISA
NCI-H1581 [19] = assay: Antitumor activity against FGFR1 amplified human NCI-H1581 cells xenografted in nude mouse assessed as tumor growth inhibition at 100 mg/kg, po administered once daily for 14 days relative to control; assay type: functional; conditions: 336 h, read-out: TGI
SNU-16 [20] = assay: Antitumor activity against FGFR2 amplified human SNU16 cells xenografted in po dosed nude mouse assessed as tumor growth inhibition administered once daily for 21 days; assay type: functional, organism-based
[21] = molecular target: Platelet-derived growth factor receptor alpha (Homo sapiens, UniProt P16234); assay: Inhibition of recombinant PDGFRalpha (unknown origin) using poly (Glu,Tyr) 4:1 as substrate after 60 mins by ELISA
[22] = molecular target: ALK tyrosine kinase receptor (Homo sapiens, UniProt Q9UM73); assay: Inhibition of recombinant ALK (unknown origin) using poly (Glu,Tyr) 4:1 as substrate after 60 mins by ELISA
Sequence of ALK tyrosine kinase receptor (Q9UM73 whole entry): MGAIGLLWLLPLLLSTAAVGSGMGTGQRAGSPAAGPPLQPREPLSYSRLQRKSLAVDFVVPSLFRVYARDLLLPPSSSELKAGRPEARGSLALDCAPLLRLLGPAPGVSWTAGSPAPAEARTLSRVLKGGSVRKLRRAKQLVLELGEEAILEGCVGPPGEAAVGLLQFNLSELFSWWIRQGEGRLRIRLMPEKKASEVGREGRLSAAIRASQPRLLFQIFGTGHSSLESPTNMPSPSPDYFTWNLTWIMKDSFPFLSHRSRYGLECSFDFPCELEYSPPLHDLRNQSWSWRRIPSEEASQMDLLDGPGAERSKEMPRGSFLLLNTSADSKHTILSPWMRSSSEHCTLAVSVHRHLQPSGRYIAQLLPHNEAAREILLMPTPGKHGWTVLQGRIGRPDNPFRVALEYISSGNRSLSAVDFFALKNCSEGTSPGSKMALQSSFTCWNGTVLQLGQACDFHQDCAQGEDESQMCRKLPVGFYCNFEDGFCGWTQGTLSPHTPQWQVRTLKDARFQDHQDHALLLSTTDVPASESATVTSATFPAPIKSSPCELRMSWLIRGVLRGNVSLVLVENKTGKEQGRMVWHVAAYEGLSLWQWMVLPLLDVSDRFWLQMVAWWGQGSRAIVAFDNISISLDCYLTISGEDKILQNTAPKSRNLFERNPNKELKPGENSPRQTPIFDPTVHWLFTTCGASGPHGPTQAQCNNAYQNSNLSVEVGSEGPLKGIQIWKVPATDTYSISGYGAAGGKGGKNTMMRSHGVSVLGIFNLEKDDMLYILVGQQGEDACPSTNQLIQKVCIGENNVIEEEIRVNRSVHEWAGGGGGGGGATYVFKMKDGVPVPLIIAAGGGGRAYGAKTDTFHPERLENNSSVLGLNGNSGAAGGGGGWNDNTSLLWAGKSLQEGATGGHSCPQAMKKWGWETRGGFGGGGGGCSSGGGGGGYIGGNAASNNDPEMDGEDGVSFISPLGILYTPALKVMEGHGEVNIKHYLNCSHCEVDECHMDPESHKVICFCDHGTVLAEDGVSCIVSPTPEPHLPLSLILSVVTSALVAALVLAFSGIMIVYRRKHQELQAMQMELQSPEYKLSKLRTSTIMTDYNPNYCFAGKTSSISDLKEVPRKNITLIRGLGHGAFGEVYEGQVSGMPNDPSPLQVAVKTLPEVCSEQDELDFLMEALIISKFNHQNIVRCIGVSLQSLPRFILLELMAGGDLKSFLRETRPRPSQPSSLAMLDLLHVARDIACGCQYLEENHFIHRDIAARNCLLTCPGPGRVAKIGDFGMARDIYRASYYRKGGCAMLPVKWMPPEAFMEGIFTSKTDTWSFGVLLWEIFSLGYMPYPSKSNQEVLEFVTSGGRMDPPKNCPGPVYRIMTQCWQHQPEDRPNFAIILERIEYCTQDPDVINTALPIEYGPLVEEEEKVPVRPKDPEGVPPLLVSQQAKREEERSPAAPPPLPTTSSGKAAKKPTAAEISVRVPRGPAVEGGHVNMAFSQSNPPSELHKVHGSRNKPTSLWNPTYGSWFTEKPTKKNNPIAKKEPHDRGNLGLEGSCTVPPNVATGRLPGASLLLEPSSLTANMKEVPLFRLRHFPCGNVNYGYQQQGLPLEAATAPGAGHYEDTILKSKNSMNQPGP

[23] = molecular target: T1, Fibroblast growth factor receptor 1; assay: Inhibition of FGFR1 in human KG1 cells assessed as reduction in PLCgamma phosphorylation at 5 to 20 nM after 2 hrs by Western blot analysis; assay type: cell-based
Target sequence in this assay (P11362 22-822 limits assumed): as the sequence (P11362 22-822 limits assumed) above

BaF3 [24] = assay: cells; conditions: Mus musculus, BaF3, 72 h
Description: Antiproliferative activity against mouse BAF3 cells expressing TEL-fused FGFR4 kinase after 72 hrs by CCK8 or MTT assay

OPM-2 = assay: cells; conditions: Homo sapiens, OPM-2, 72 h
Description: Antiproliferative activity against FGFR3 amplified human OPM2 cells after 72 hrs by CCK8 or MTT assay

[25] = Toxicity in nude mouse xenografted with FGFR2 amplified human SNU16 cells assessed as weight loss at 25 to 50 mg/kg, po administered once daily for 21 days relative to control; assay type: organism-based; conditions: in vivo, 504 h
[26] = molecular target: T3, Fibroblast growth factor receptor 3 (Homo sapiens, UniProt P22607); assay: Inhibition of FGFR3 in human UMUC14 cells assessed as reduction in PLCgamma phosphorylation at 1 to 100 nM after 2 hrs by Western blot analysis; assay type: cell-based
Target sequence in this assay (P22607 23-806 limits assumed): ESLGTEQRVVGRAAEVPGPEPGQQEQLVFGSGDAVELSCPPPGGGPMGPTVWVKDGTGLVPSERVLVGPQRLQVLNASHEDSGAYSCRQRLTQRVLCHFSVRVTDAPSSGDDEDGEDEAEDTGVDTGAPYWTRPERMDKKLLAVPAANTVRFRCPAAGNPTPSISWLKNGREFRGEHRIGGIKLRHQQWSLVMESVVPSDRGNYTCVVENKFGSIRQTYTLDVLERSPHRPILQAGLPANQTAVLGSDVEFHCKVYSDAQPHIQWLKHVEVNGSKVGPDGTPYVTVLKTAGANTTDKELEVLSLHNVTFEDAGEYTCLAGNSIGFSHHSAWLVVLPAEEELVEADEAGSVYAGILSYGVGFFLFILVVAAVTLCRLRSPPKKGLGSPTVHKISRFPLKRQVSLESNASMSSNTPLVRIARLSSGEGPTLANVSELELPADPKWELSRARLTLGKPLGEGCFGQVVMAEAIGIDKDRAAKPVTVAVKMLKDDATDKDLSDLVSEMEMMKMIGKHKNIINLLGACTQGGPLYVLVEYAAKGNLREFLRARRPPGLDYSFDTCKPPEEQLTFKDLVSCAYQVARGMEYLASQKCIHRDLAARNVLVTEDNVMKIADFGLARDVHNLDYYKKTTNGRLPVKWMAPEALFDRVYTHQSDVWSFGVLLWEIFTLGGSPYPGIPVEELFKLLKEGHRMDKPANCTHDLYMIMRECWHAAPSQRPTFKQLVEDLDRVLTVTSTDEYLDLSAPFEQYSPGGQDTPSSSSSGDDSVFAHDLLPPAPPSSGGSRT

[27] = molecular target: T3, Fibroblast growth factor receptor 3; assay: Inhibition of FGFR3 in human UMUC14 cells assessed as reduction in ERK phosphorylation at 1 to 100 nM after 2 hrs by Western blot analysis; assay type: cell-based
Target sequence in this assay (P22607 23-806 limits assumed): as above

SNU-16 [28] = assay: cells; conditions: Homo sapiens, SNU-16, 72 h
Description: Antiproliferative activity against FGFR2 amplified human SNU16 cells after 72 hrs by CCK8 or MTT assay

Huh-7 = assay: cells; conditions: Homo sapiens, Huh-7, 72 h
Description: Antiproliferative activity against FGF19/FGFR4 expressing human HuH7 cells after 72 hrs by CCK8 or MTT assay

[29] = molecular target: Receptor tyrosine-protein kinase erbB-4 (Homo sapiens, UniProt Q15303); assay: Inhibition of recombinant ERBB4 (unknown origin) using poly (Glu,Tyr) 4:1 as substrate after 60 mins by ELISA
[30] = molecular target: T3, Fibroblast growth factor receptor 3; assay: Inhibition of recombinant FGFR3 (unknown origin) using poly (Glu,Tyr) 4:1 as substrate after 60 mins by ELISA
[31] = molecular target: T2, Fibroblast growth factor receptor 2; assay: Inhibition of FGFR2 in human SNU16 cells assessed as reduction in PLCgamma phosphorylation at 0.1 to 10 nM after 2 hrs by Western blot analysis; assay type: cell-based
Target sequence in this assay (P21802 22-821 limits assumed): as the sequence (P21802 22-821 limits assumed) above

BaF3 [32] = assay: cells; conditions: Mus musculus, BaF3, 72 h; remark: listed apart in the source
Description: Antiproliferative activity against mouse BAF3 cells expressing TEL-fused KDR kinase after 72 hrs by CCK8 or MTT assay

[33] = Toxicity in nude mouse xenografted with FGFR1 amplified human NCI-H1581 cells assessed as weight loss at 50 to 100 mg/kg, po administered once daily for 14 days relative to control; assay type: organism-based; conditions: in vivo, 336 h
[34] = molecular target: T2, Fibroblast growth factor receptor 2; assay: Inhibition of recombinant FGFR2 (unknown origin) using poly (Glu,Tyr) 4:1 as substrate after 60 mins by ELISA
NCI-H1581 [35] = assay: Antitumor activity against FGFR1 amplified human NCI-H1581 cells xenografted in po dosed nude mouse assessed as tumor growth inhibition administered once daily for 14 days; assay type: functional, organism-based
[36] = molecular target: T2, Fibroblast growth factor receptor 2; assay: Inhibition of FGFR2 in human SNU16 cells assessed as reduction in ERK phosphorylation at 0.1 to 10 nM after 2 hrs by Western blot analysis; assay type: cell-based
Target sequence in this assay (P21802 22-821 limits assumed): as above

[37] = molecular target: Receptor tyrosine-protein kinase erbB-2 (Homo sapiens, UniProt P04626); assay: Inhibition of recombinant ERBB2 (unknown origin) using poly (Glu,Tyr) 4:1 as substrate after 60 mins by ELISA
[38] = Cmax in Sprague-Dawley rat at 10 mg/kg, po administered via gavage by HPLC-MS/MS analysis; assay type: ADME, organism-based; parameters: dose 10 mg/kg, route oral; conditions: in vivo
[39] = molecular target: Proto-oncogene tyrosine-protein kinase Src (Homo sapiens, UniProt P12931); assay: Inhibition of recombinant c-SRC (unknown origin) using poly (Glu,Tyr) 4:1 as substrate after 60 mins by ELISA
Sequence of Proto-oncogene tyrosine-protein kinase Src (P12931 2-536 limits assumed): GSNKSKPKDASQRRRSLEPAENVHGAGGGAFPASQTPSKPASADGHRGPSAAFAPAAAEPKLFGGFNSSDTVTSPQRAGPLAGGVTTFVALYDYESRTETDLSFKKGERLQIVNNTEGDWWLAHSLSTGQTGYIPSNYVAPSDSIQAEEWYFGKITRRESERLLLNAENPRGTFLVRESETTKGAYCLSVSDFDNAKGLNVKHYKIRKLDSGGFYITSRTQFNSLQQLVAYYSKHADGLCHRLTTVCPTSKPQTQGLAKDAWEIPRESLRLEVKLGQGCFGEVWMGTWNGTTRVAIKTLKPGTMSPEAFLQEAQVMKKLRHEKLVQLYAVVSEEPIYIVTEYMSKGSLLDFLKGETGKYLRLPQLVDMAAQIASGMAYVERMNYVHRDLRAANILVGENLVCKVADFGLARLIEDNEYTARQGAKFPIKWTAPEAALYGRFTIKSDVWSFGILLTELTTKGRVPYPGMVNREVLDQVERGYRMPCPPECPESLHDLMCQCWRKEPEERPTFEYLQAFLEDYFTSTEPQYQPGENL

[40] = molecular target: T3, Fibroblast growth factor receptor 3; assay: Inhibition of FGFR3 phosphorylation in human UMUC14 cells at 1 to 100 nM after 2 hrs by Western blot analysis; assay type: cell-based
Target sequence in this assay (P22607 23-806 limits assumed): as the sequence (P22607 23-806 limits assumed) above

[41] = Terminal half life in Sprague-Dawley rat at 10 mg/kg, po administered via gavage by HPLC-MS/MS analysis; assay type: ADME, organism-based; conditions: in vivo, read-out: beta t1/2 (converted)

C=CC(=O)N1CC[C@H](n2cc(-c3cc4cc(C)cc(OC)c4s3)c3c(N)ncnc32)C1
IC50 [1]: > 1000 nM
IC50 [2]: > 1000 nM
IC50 (RT-112): < 0.5 nM
IC50 [3]: > 1000 nM
AUC [4]: 277 ng·h/mL
inhibition [5]: Active
IC50 (NCI-H1581 [6]): 0.3 to 0.5 nM
IC50 (Ephrin type-A receptor 2): > 1000 nM
IC50 [7]: < 0.3 nM
inhibition [8]: Active
IC50 [9]: > 1000 nM
inhibition [10]: Active
Ratio IC50 (Homo sapiens): > 350
IC50 [11]: > 1000 nM
Tmax [12]: 2.75 h
inhibition [13]: Active
IC50 [14]: 113 nM
IC50 [15]: > 1000 nM
inhibition in vivo at 50 mg/kg (SNU-16 [16]): 85.8%
IC50 [17]: 5.3 nM
IC50 [18]: > 1000 nM
inhibition in vivo at 100 mg/kg (NCI-H1581 [19]): 98.9%
TGI (SNU-16 [20]): Dose-dependent effect
IC50 [21]: > 1000 nM
IC50 [22]: > 1000 nM
inhibition [23]: Active
IC50 (BaF3 [24]): < 4.6 nM
IC50 (OPM-2): < 0.5 nM
Activity [25]: Non-Toxic
inhibition [26]: Active
inhibition [27]: Active
IC50 (SNU-16 [28]): < 0.1 nM
IC50 (Huh-7): < 1.5 nM
IC50 [29]: > 1000 nM
IC50 [30]: 9.4 nM
inhibition [31]: Active
IC50 (BaF3 [32]): 294 nM
Activity [33]: Non-Toxic
IC50 [34]: 0.8 nM
TGI (NCI-H1581 [35]): Dose-dependent effect
inhibition [36]: Active
IC50 [37]: > 1000 nM
Cmax [38]: 77.7 ng/mL
IC50 [39]: > 1000 nM
inhibition [40]: Active
half-life [41]: 1.73 h
